Measured values reported in patent US20050214385A1, “Chromium/biotin treatment of dyslipidemia and diet-induced post prandial hyperglycemia” (priority 2001, published 2005).
Several values for one entry are separate records, joined by “and”; a condition that tells them apart may be missing. Equal entries are not always repeated. Where two headings read alike, the source gives them in different places.

Tests used:
[1] = rats, oral CrCl3 with NSAID; cited from earlier work
[2] = system: human skeletal muscle culture (HSMC); assay: Glucose uptake in human skeletal muscle culture; type: cell-based; conditions: FIG. 2
[3] = system: glycogen synthetase (GS) mRNA; assay: Glycogen synthetase (GS) mRNA expression in HSMC; type: cell-based, human; conditions: CrPic 10 ng/ml, biotin 10 pm, FIG. 4B
Procedure: To evaluate the cellular mechanism by […] biotin enhance glycogen synthesis, glycogen synthetase (“GS”) mRNA and glycogen synthesis were assessed. HSMC was incubated with CrPic at 10 ng/ml, biotin at 10 pm, and both CrPic and biotin. […] When evaluating GS mRNA levels, chromium increased gene expression of GS by 26%, biotin by 15%, and the combination by 33%. […] RNA Preparation: Total RNA from the skeletal muscle biopsy was isolated using guanium […], phenol-chloroform extraction, and alcohol precipitation. RNA sample was quantified by spectrophotometer. The absorption ratio (260:280 nm) was between 1.8 to 2.0 for all preparations and the integrity of the RNA was verified on agarose gel colored with ethidium bromide. For RT-PCR, fresh isolated total RNA was used. GS mRNA Level Analysis: GS mRNA levels were analyzed using one-step RT-PCR kits (Clontech Laboratories, Inc., Palo Alto, Calif.). GS first-strand CDNA synthesis was performed from 1 μh of total RNA with 1×[…] plus enzyme mix in 40 mM Tricine, 20 mM Kcl, 3 mM MgCl2, 3.75 ug/ml BSA, 0.2 mM deoxynucleoside triphosphates, 400 pmol of oligo(dt) primer, and 200 pm GS primers (Sense [NT], antisense [NT]) in a final volume of 50 μl. The reaction mixtures were subjected to incubations for 60 min. at 50° C. in the Eppendorf Master gradient cycler (Westbury, N.Y.). […] The band densities were evaluated (Alpha Imager 2000, San Leandro, Calif.). […]

[4] = system: JCR rat; assay: Intraperitoneal glucose tolerance test / glucose disposal in JCR rats; type: in vivo; conditions: for Glucose Disposal: individual rat, 12 weeks daily treatment via water; for Glucose Disposal, value per treatment group: mean per treatment, 12 weeks
Procedure: In order to test the effects of chromium and biotin, alone and in combination, on insulin sensitivity, a rodent model of “Syndrome X” was employed. Specifically, the JCR rat was utilized as it is a well-established model of obesity and insulin resistance.
After a baseline phase where accurate weights, body composition, and food intake were assessed, the animals were randomized to either control, CrPic alone, biotin alone, or CrPic/Biotin (See FIG. 5). Animals were weighed weekly and nutrients were given via daily water feeding at a specified dose/kg body weight. A 12-week period of daily treatment of animals was accomplished.
At specified time points during the study, glucose and insulin assessments were made. Specific assessments of carbohydrate metabolism were determined using an intraperitoneal glucose tolerance test and an insulin tolerance test. Animals were studied at 6 and 12 weeks with randomization. The specific metabolic testing was as follows:
Following baseline glucose and insulin measurements, 1.5 mg D50W per gram of body weight were given intraperitoneally. Tailsticks were initiated at 30, 60, 90, and 120 minutes following administration of glucose. The areas under curve for insulin and glucose were assessed. Eight animals in each group at 12 weeks were studied. Table 1 details the amount of glucose disposal for animals treated with CrPic and/or biotin at various dosages. Note, “L” represents the lean control; “O-contr” are the obese control rats; “LB” connotes low biotin treatments; “HB” represents high biotin treatments; “LC” and “HC” represent low and high doses of chromium, respectively. FIG. 6 is a graphic representation of the results of the IPGTT studies. […]

[5] = system: JCR rat; assay: Lipid levels in JCR rats (chromium picolinate + biotin animal study); type: in vivo; set-up: Cholesterol / HDL-ch: unit not given here
Procedure: In order to test the effects of chromium and biotin, alone and in combination, on insulin sensitivity, a rodent model of “Syndrome X” was employed. Specifically, the JCR rat was utilized as it is a well-established model of obesity and insulin resistance. […] After a baseline phase where accurate weights, body composition, and food intake were assessed, the animals were randomized to either control, CrPic alone, biotin alone, or CrPic/Biotin (See FIG. 5). Animals were weighed weekly and nutrients were given via daily water feeding at a specified dose/kg body weight. A 12-week period of daily treatment of animals was accomplished. […] Specifically, CrPic versus control solutions were given in hyperinsulinemic, insulin-resistant, obese JCR rats. The study was initiated on animals at approximately 4 months of age, and animals were treated specifically for three months. […] 9). […] The improvement in insulin sensitivity was associated with a reduction in total. cholesterol levels compared to lean animals (See, e.g., Table 2, and FIGS. 10 & 11). The effect of the combination of chromium and biotin on lipid levels in the animal study is detailed in Table 2. Specifically, the effect of chromium and biotin on cholesterol levels, high density lipid cholesterol (HDL-ch) levels, and triglyceride levels are recorded in Table 2.

[6] = oral biotin intakes of up to 200 mg daily; cited from earlier work
[7] = system: diabetic KK mice; conditions: high-dose oral or parenteral; cited from earlier work
[8] = system: streptozotocin-diabetic rats; Otsuka Long-Evans Tokushima Fatty rats; conditions: high-dose oral or parenteral, cited from earlier work
[9] = system: Type I and type 2 diabetics; conditions: cited from earlier work
[10] = system: JCR rat; assay: Insulin tolerance test in obese JCR rats; type: in vivo; conditions: FIG. 9
Procedure: (§1) At specified time points during the study, glucose and insulin assessments were made. Specific assessments of carbohydrate metabolism were determined using an intraperitoneal glucose tolerance test and an insulin tolerance test. Animals were studied at 6 and 12 weeks with randomization. The specific metabolic testing was as follows: Following baseline glucose assessment, insulin (5 units per kg body weight) was given intravenously. Repeat glucose assessments occurred at 5, 15, and 30 minute intervals following insulin administration. The rate of glucose disappearance was measured. Again, eight animals in each group at 12 weeks were studied. […] Specifically, CrPic versus control solutions were given in hyperinsulinemic, insulin-resistant, obese JCR rats. The study was initiated on animals at approximately 4 months of age, and animals were treated specifically for three months. […] 9). […] The improvement in insulin sensitivity was associated with a reduction in total. cholesterol levels compared to lean animals (See, e.g., Table 2, and FIGS. 10 & 11). The effect of the combination of chromium and biotin on lipid levels in the animal study is detailed in Table 2. Specifically, the effect of chromium and biotin on cholesterol levels, high density lipid cholesterol (HDL-ch) levels, and triglyceride levels are recorded in Table 2.

[11] = system: JCR rat; assay: Fasting plasma insulin in obese JCR rats; type: in vivo; conditions: treated three months, end of study, FIG. 7
Procedure: as §1, with “randomization.” for “randomization. The specific metabolic testing was as follows: Following baseline glucose assessment, insulin (5 units per kg body weight) was given intravenously. Repeat glucose assessments occurred at 5, 15, and 30 minute intervals following insulin administration. The rate of glucose disappearance was measured. Again, eight animals in each group at 12 weeks were studied.”

[12] = system: diabetic and obese pre-diabetic subjects; conditions: cited from earlier work
[13] = system: JCR:LA-corpulent rat; conditions: obese, hyperinsulinemic, insulin resistant rodent model; cited from earlier work
[14] = Month 0, listed as High Chromium
[15] = Month 0, listed as Low Chromium
[16] = Month 1, listed as High Chromium
[17] = Month 1, listed as Low Chromium
[18] = Month 2, listed as High Chromium
[19] = Month 2, listed as Low Chromium
[20] = Month 3, listed as High Chromium
[21] = Month 3, listed as Low Chromium

In the case of CC(=O)Oc1ccccc1C(=O)O [aspirin], the Chromium absorption [1] is given as “facilitated”.

In the case of O=C(O)CCCC[C@@H]1SC[C@@H]2NC(=O)N[C@@H]21 [biotin], the glucose uptake [2] is reported as “chromium alone enhances glucose uptake in contrast to biotin alone”, the “increase of gene expression of GS (GS mRNA levels)” value [3] is reported as 15% and the “Glucose Disposal” value ([4]; listed as HB) is reported as 1.92 mg/dL/min and 2.329 mg/dL/min and 1.879 mg/dL/min and 1.772 mg/dL/min and 1.993 mg/dL/min. The “Glucose Disposal” value ([4]; listed as LB) was 2.21 mg/dL/min and 2.392 mg/dL/min and 1.876 mg/dL/min and 1.768 mg/dL/min and 1.875 mg/dL/min, the “Glucose Disposal, value per treatment group” value [4] was 2.0615 mg/dL/min and the Cholesterol ([5]; Month 0, listed as High Biotin) was 106. It also gave an HDL-ch ([5]; Month 0, listed as High Biotin) of 43.6, a Triglyceride ([5]; Month 0, listed as High Biotin) of 289 mg/dL and a Cholesterol ([5]; Month 0, listed as Low Biotin) of 111. For the same compound, the HDL-ch ([5]; Month 0, listed as Low Biotin) was 47.8, the Triglyceride ([5]; Month 0, listed as Low Biotin) was 317 mg/dL and the Cholesterol ([5]; Month 1, listed as High Biotin) was 111. The HDL-ch ([5]; Month 1, listed as High Biotin) was 42, the Triglyceride ([5]; Month 1, listed as High Biotin) was 292 mg/dL and the Cholesterol ([5]; Month 1, listed as Low Biotin) was 117. The HDL-ch ([5]; Month 1, listed as Low Biotin) was 46.5, the Triglyceride ([5]; Month 1, listed as Low Biotin) was 331 mg/dL and the Cholesterol ([5]; Month 2, listed as High Biotin) was 130. It also gave an HDL-ch ([5]; Month 2, listed as High Biotin) of 46.8, a Triglyceride ([5]; Month 2, listed as High Biotin) of 294 mg/dL and a Cholesterol ([5]; Month 2, listed as Low Biotin) of 122. For the same compound, the HDL-ch ([5]; Month 2, listed as Low Biotin) was 45.8, the Triglyceride ([5]; Month 2, listed as Low Biotin) was 272 mg/dL and the Cholesterol ([5]; Month 3, listed as High Biotin) was 144. The HDL-ch ([5]; Month 3, listed as High Biotin) was 46.9, the Triglyceride ([5]; Month 3, listed as High Biotin) was 301 mg/dL and the Cholesterol ([5]; Month 3, listed as Low Biotin) was 118. For the same compound, the HDL-ch ([5]; Month 3, listed as Low Biotin) was 47.3, the Triglyceride ([5]; Month 3, listed as Low Biotin) was 229 mg/dL and the “side effects or toxicities” value [6] was “no side effects or toxicities”. For the same compound, the oral glucose tolerance [7] was “improve oral glucose tolerance”, the oral glucose tolerance ([8]; pre-diabetic Otsuka Long-Evans Tokushima Fatty rats) was “improve oral glucose tolerance” and the oral glucose tolerance ([8]; rats made diabetic with streptozotocin) was “improve oral glucose tolerance”. For the same compound, the “fasting plasma glucose levels” value ([9]; Type I diabetics, insulin temporarily discontinued, 16 mg daily oral) was “lowered fasting plasma glucose levels” and the “pancreatic beta cell function” value ([9]; poorly-controlled type 2 diabetics, 3 mg three times per day) was “improved”.

With chromium picolinate [CrPic] the glucose uptake [2] was “enhances glucose uptake”, the “increase of gene expression of GS (GS mRNA levels)” value [3] was 26% and the “Glucose Disposal” value ([4]; listed as HC) was 2.928 mg/dL/min and 3.25 mg/dL/min and 3.224 mg/dL/min and 3.011 mg/dL/min and 2.821 mg/dL/min. The “Glucose Disposal” value ([4]; listed as LC) was 2.334 mg/dL/min and 2.109 mg/dL/min and 2.066 mg/dL/min, the “Glucose Disposal, value per treatment group” value [4] was 2.928 mg/dL/min and the “glucose response to intraperitoneal glucose tolerance test” value ([4]; obese JCR rats, FIG. 8A) was “significantly improved glucose response”. For the same compound, the “insulin response to intraperitoneal glucose tolerance test” value ([4]; obese rat, FIG. 8B) was “significantly lowered insulin response”, the Cholesterol [5, 14] was 110 and the HDL-ch [5, 14] was 43.1. The Triglyceride [5, 14] was 302 mg/dL, the Cholesterol [5, 15] was 109 and the HDL-ch [5, 15] was 45.9. The Triglyceride [5, 15] was 319 mg/dL, the Cholesterol [5, 16] was 112 and the HDL-ch [5, 16] was 43.2. It also gave a Triglyceride [5, 16] of 283 mg/dL, a Cholesterol [5, 17] of 93 and an HDL-ch [5, 17] of 38.6. For the same compound, the Triglyceride [5, 17] was 267 mg/dL, the Cholesterol [5, 18] was 120 and the HDL-ch [5, 18] was 51.5. For the same compound, the Triglyceride [5, 18] was 221 mg/dL, the Cholesterol [5, 19] was 130 and the HDL-ch [5, 19] was 43.4. It also gave a Triglyceride [5, 19] of 256 mg/dL, a Cholesterol [5, 20] of 122 and an HDL-ch [5, 20] of 48.1. The Triglyceride [5, 20] was 174 mg/dL, the Cholesterol [5, 21] was 137 and the HDL-ch [5, 21] was 45.9. The Triglyceride [5, 21] was 242 mg/dL, the total cholesterol levels ([5]; obese JCR rats, FIGS. 10 & 11) was “reduction” and the “Insulin sensitivity, insulin tolerance test” value [10] was “significantly improved”. The fasting plasma insulin [11] was “significantly lower fasting plasma insulin”, the glucose levels ([12]; Chinese diabetics) was “significantly lowered” and the insulin levels ([12]; Chinese diabetics) was “significantly lowered”. The insulin sensitivity ([12]; obese, pre-diabetic subjects, 1000 μg per day) was “enhance insulin sensitivity”, the insulin sensitivity [13] was “very robust effect on improving” and the lipid profiles [13] was “very robust effect on improving”.
